In patent publication US20130029970A1 (priority 2009, published 2013):
pEC50, pIC50: −log10 of the molar value.

Key:
[1] = target: T1, recombinant human cannabinoid receptor CB2 (Homo sapiens, UniProt P34972); assay: Cannabinoid receptor radioligand binding assay, [3H]-CP 55,940 displacement, hCB2
T1 construct: (cDNA clone) CNR0200000
Method in brief: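 Membranes from hCB2-transfected cells, prepared by 1000×g then 40,000×g centrifugation, resuspended in 20 mM HEPES pH 7.4, 5 mM MgCl2, 1 mM EDTA, 10% sucrose.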

[2] = target: T2, human CB1 receptors (Homo sapiens, UniProt P21554); assay: cAMP assay in HEK-293 cells, hCB1 agonist; format: cell-based; settings: inhibition of forskolin-stimulated cAMP, HEK-293 cells; for pEC50: read-out: hCB1 EC50 (cAMP ag)
T2 construct: (cDNA clone) CNR01L000
T2 sequence (P21554 whole entry): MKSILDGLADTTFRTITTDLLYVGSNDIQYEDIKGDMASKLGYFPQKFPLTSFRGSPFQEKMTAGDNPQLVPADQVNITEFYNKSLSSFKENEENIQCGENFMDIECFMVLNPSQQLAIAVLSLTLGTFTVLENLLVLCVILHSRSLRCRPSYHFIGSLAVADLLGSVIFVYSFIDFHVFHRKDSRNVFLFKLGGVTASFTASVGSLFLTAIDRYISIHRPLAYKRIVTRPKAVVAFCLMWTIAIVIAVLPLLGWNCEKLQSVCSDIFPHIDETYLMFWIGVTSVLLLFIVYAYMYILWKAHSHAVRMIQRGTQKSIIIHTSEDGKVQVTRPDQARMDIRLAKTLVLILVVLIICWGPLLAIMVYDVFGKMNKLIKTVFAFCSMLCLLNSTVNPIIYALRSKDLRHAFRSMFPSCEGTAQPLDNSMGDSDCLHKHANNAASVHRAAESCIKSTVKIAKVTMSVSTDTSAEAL
Method in brief: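 Stable hCB1 HEK-293 cells suspended in HBSS with 10 mM HEPES and 0.1% fatty acid-free BSA, incubated 30 min at 37° C. with compound plus forskolin (90 uM in the 3× compound solution). Lysed cAMP measured by enzyme-fragment kit; EC50 = 50% inhibition of forskolin-stimulated cAMP (forskolin maximum = 100%), sigmoidal fit.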

[3] = target: T3, human CB2 receptors (Homo sapiens, UniProt P34972); assay: cAMP assay in HEK-293 cells, hCB2 agonist; format: cell-based; settings: inhibition of forskolin-stimulated cAMP, HEK-293 cells; read-out: hCB2 EC50 (cAMP ag)
T3 construct: (cDNA clone) CNR0200000
T3 sequence (P34972 whole entry): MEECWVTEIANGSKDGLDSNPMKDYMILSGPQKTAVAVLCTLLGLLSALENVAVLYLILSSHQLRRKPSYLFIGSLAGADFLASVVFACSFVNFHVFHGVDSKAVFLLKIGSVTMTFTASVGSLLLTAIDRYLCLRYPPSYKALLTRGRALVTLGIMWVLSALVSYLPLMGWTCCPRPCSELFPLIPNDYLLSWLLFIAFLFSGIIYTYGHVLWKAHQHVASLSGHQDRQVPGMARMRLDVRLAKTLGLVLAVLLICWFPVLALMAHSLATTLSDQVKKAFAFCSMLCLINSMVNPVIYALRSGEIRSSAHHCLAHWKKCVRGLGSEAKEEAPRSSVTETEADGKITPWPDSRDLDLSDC
Method in brief: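 HEK-293 cells stably expressing human CB2, suspended at 1,500,000 cells/mL in HBSS with 10 mM HEPES and 0.1% fatty-acid-free BSA, exposed to test compound plus forskolin (90 uM in the 3× compound solution) for 30 min at 37° C.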

T1 sequence (P34972 whole entry): as above

Compound | pIC50 [1] | hCB1 EC50 (cAMP ag, nM) [2] | pEC50 [3] | pEC50 [2]
Cc1cc2cc(C(=O)c3ccc(F)cc3)sc2n1CCN1CCOCC1 [Compound 54, (4-Fluorophenyl)(5-methyl-6-(2-morpholinoethyl)-6H-thieno[2,3-b]pyrrol-2-yl)methanone] | 6.00 to 7.00 | NS (NS means “Not Significant,” which means less than 30% agonist activity when compared to the positive control.) | > 7.00 | –
CCS(=O)(=O)n1c(C)cc2cc(C(=O)c3ccc(OC)cc3)sc21 [Compound 56, (6-(Ethylsulfonyl)-5-methyl-6H-thieno[2,3-b]pyrrol-2-yl)(4-methoxyphenyl)methanone] | 6.00 to 7.00 | NS (NS means “Not Significant,” which means less than 30% agonist activity when compared to the positive control.) | > 7.00 | –
COc1ccc(C(=O)c2cc3cc(C)n(S(=O)(=O)CC4CCOCC4)c3s2)cc1 [Compound 57, (4-Methoxyphenyl)(5-methyl-6-((tetrahydro-2H-pyran-4-yl)methylsulfonyl)-6H-thieno[2,3-b]pyrrol-2-yl)methanone] | > 7.00 | – | > 7.00 | > 7.00
COc1ccc(C(=O)c2cc3cc(C)n(CCN4CCOCC4)c3s2)cn1 [Compound 58, (6-Methoxypyridin-3-yl)(5-methyl-6-(2-morpholinoethyl)-6H-thieno[2,3-b]pyrrol-2-yl)methanone] | 6.00 to 7.00 | NS (NS means “Not Significant,” which means less than 30% agonist activity when compared to the positive control.) | > 7.00 | –
Cc1cc2cc(C(=O)c3ccc(C(F)(F)F)cc3)sc2n1CCN1CCOCC1 [Compound 60, (5-Methyl-6-(2-morpholinoethyl)-6H-thieno[2,3-b]pyrrol-2-yl)(4-(trifluoromethyl)phenyl)methanone] | 5.00 to 6.00 | NS (NS means “Not Significant,” which means less than 30% agonist activity when compared to the positive control.) | > 7.00 | –
COc1ccc(C(=O)c2cc3cc(C)n(CC4CCOCC4)c3s2)cc1 [Compound 62, (4-Methoxyphenyl)(5-methyl-6-((tetrahydro-2H-pyran-4-yl)methyl)-6H-thieno[2,3-b]pyrrol-2-yl)methanone] | > 7.00 | – | > 7.00 | 6.00 to 7.00
COc1ccc(C(=O)c2cc3cc(C)n(CCN4CCOCC4)c3s2)c(Cl)c1 [Compound 70, (2-Chloro-4-methoxyphenyl)(5-methyl-6-(2-morpholinoethyl)-6H-thieno[2,3-b]pyrrol-2-yl)methanone] | > 7.00 | – | > 7.00 | 6.00 to 7.00
COc1ccc(C(=O)c2cc3cc(C)n(CCN4CCCCC4)c3s2)cc1 [Compound 78, (4-Methoxyphenyl)(5-methyl-6-(2-(piperidin-1-yl)ethyl)-6H-thieno[2,3-b]pyrrol-2-yl)methanone] | > 7.00 | – | > 7.00 | 5.00 to 6.00
COc1ccc(C(=O)c2cc3cc(C)n(CCC4CCOCC4)c3s2)cc1 [Compound 82, (4-Methoxyphenyl)(5-methyl-6-(2-(tetrahydro-2H-pyran-4-yl)ethyl)-6H-thieno[2,3-b]pyrrol-2-yl)methanone] | > 7.00 | – | > 7.00 | 6.00 to 7.00
COc1ccc(C(=O)c2cc3cc(C)n(Cc4ccccc4)c3s2)cc1 [Compound 84, (6-Benzyl-5-methyl-6H-thieno[2,3-b]pyrrol-2-yl)(4-methoxyphenyl)methanone] | 6.00 to 7.00 | NS (NS means “Not Significant,” which means less than 30% agonist activity when compared to the positive control.) | > 7.00 | –
COc1ccc(C(=O)c2cc3cc(C)n(CCCCl)c3s2)c(Cl)c1 [Compound 85, (2-Chloro-4-methoxyphenyl)(6-(3-chloropropyl)-5-methyl-6H-thieno[2,3-b]pyrrol-2-yl)methanone] | > 7.00 | – | > 7.00 | 5.00 to 6.00
COc1ccc(C(=O)c2cc3cc(C)n(CCCNS(C)(=O)=O)c3s2)c(F)c1 [Compound 87, N-(3-(2-(2-Fluoro-4-methoxybenzoyl)-5-methyl-6H-thieno[2,3-b]pyrrol-6-yl)propyl)methanesulfonamide] | 6.00 to 7.00 | NS (NS means “Not Significant,” which means less than 30% agonist activity when compared to the positive control.) | > 7.00 | –
COc1ccc(C(=O)c2cc3cc(C)n(CCCNS(C)(=O)=O)c3s2)c(Cl)c1 [Compound 91, N-(3-(2-(2-Chloro-4-methoxybenzoyl)-5-methyl-6H-thieno[2,3-b]pyrrol-6-yl)propyl)methanesulfonamide] | > 7.00 | NS (NS means “Not Significant,” which means less than 30% agonist activity when compared to the positive control.) | > 7.00 | –
COc1ccc(C(=O)c2cc3cc(C)n(CCN4CCOCC4)c3s2)c(C(F)(F)F)c1 [Compound 119, (4-Methoxy-2-(trifluoromethyl)phenyl)(5-methyl-6-(2-morpholinoethyl)-6H-thieno[2,3-b]pyrrol-2-yl)methanone] | > 7.00 | – | > 7.00 | 6.00 to 7.00
COc1ccc(C(=O)c2cc3cc(C)n(CCN4CCOCC4)c3s2)c(OC)c1 [Compound 120, (2,4-Dimethoxyphenyl)(5-methyl-6-(2-morpholinoethyl)-6H-thieno[2,3-b]pyrrol-2-yl)methanone] | > 7.00 | – | > 7.00 | 6.00 to 7.00
Cc1ccc(C(=N)c2cc3cc(C)n(CCN4CCOCC4)c3s2)cc1 [Compound 121, (5-methyl-6-(2-morpholinoethyl)-6H-thieno[2,3-b]pyrrol-2-yl)(p-tolyl)methanimine] | 6.00 to 7.00 | NS (NS means “Not Significant,” which means less than 30% agonist activity when compared to the positive control.) | > 7.00 | –
CCOc1ccc(C(=O)c2cc3cc(C)n(CCN4CCOCC4)c3s2)c(Cl)c1 [Compound 126, (2-chloro-4-ethoxyphenyl)(5-methyl-6-(2-morpholinoethyl)-6H-thieno[2,3-b]pyrrol-2-yl)methanone] | > 7.00 | – | > 7.00 | 5.00 to 6.00
COc1ccc(C(=O)c2cc3cc(C)n(CCN4CCOCC4)c3s2)cc1F [Compound 128, (3-fluoro-4-methoxyphenyl)(5-methyl-6-(2-morpholinoethyl)-6H-thieno[2,3-b]pyrrol-2-yl)methanone] | 6.00 to 7.00 | NS (NS means “Not Significant,” which means less than 30% agonist activity when compared to the positive control.) | 6.00 to 7.00 | –
Cc1cc2cc(C(=O)c3ccc(C#N)cc3)sc2n1CCN1CCOCC1 [Compound 129, 4-(5-methyl-6-(2-morpholinoethyl)-6H-thieno[2,3-b]pyrrole-2-carbonyl)benzonitrile] | 6.00 to 7.00 | NS (NS means “Not Significant,” which means less than 30% agonist activity when compared to the positive control.) | 6.00 to 7.00 | –
COc1cc(F)ccc1C(=O)c1cc2cc(C)n(CCN3CCOCC3)c2s1 [Compound 133, (4-fluoro-2-methoxyphenyl)(5-methyl-6-(2-morpholinoethyl)-6H-thieno[2,3-b]pyrrol-2-yl)methanone] | > 7.00 | – | > 7.00 | 6.00 to 7.00
Cc1cc2cc(C(=O)c3ccc(F)cc3F)sc2n1CCN1CCOCC1 [Compound 135, (2,4-difluorophenyl)(5-methyl-6-(2-morpholinoethyl)-6H-thieno[2,3-b]pyrrol-2-yl)methanone] | 6.00 to 7.00 | NS (NS means “Not Significant,” which means less than 30% agonist activity when compared to the positive control.) | > 7.00 | –
COc1ccc(C(=O)c2cc3cc(C)n(CCN4CCOCC4)c3s2)c(C)n1 [Compound 136, (6-methoxy-2-methylpyridin-3-yl)(5-methyl-6-(2-morpholinoethyl)-6H-thieno[2,3-b]pyrrol-2-yl)methanone] | > 7.00 | NS (NS means “Not Significant,” which means less than 30% agonist activity when compared to the positive control.) | > 7.00 | –
COc1ccc(C(O)(c2cc3cc(C)n(CCN4CCOCC4)c3s2)C(F)(F)F)cc1 (stereo not drawn) [Compound 138, 2,2,2-trifluoro-1-(4-methoxyphenyl)-1-(5-methyl-6-(2-morpholinoethyl)-6H-thieno[2,3-b]pyrrol-2-yl)ethanol] | 6.00 to 7.00 | NS (NS means “Not Significant,” which means less than 30% agonist activity when compared to the positive control.) | > 7.00 | –
COc1ccc(C(=O)c2cc3cc(C)n(S(=O)(=O)CCN4CCOCC4)c3s2)cc1 [Compound 139, (4-methoxyphenyl)(5-methyl-6-(2-morpholinoethylsulfonyl)-6H-thieno[2,3-b]pyrrol-2-yl)methanone] | > 7.00 | – | > 7.00 | 6.00 to 7.00
COc1ccc(C(c2cc3cc(C)n(CCN4CCOCC4)c3s2)C(F)(F)F)cc1 (stereo not drawn) [Compound 141, 4-(2-(5-methyl-2-(2,2,2-trifluoro-1-(4-methoxyphenyl)ethyl)-6H-thieno[2,3-b]pyrrol-6-yl)ethyl)morpholine] | 6.00 to 7.00 | NS (NS means “Not Significant,” which means less than 30% agonist activity when compared to the positive control.) | > 7.00 | –
